Residues, ends and D or L forms follow the SMILES beside them. *: point of attachment. Biotin = O=C1N[C@H]2[C@H](CS[C@H]2CCCCC(=O)*)N1
Each compound was assayed against T1, soluble ectodomain of sortilin-6his (Homo sapiens, UniProt Q99523, V650M) (assay: MST binding to soluble ectodomain of sortilin-6his). Details: Table 1; biotin-linker-peptide bifunctional compounds; MST; read-out: KD score, binding to sortilin (Kd).
T1 construct: the soluble ectodomain of sortilin-6his is measured by microscale thermophoresis (MST)
With `CC(C)C[C@H](NC(=O)[C@H](CC(C)C)NC(=O)[C@H](CCC(N)=O)NC(=O)[C@H](Cc1ccccc1)NC(=O)CNC(=O)CNC(=O)CNC(=O)CNC(=O)[C@H](CO)NC(=O)CNC(=O)CNC(=O)CCCC[C@@H]1SC[C@@H]2NC(=O)N[C@@H]21)C(=O)O` [compound 143] (Biotin-GGSGGGGFQLL-OH) the Kd was < 100 nM.

Same assay, conditions: Table 3; monofunctional peptides; MST; read-out: KD score, binding to sortilin (Kd)
`CC(C)C[C@H](NC(=O)[C@H](CC(C)C)NC(=O)[C@H](CCC(N)=O)NC(=O)[C@@H](N)CCCNC(=N)N)C(=O)O` [compound 22, RQLL-OH] (H-RQLL-OH) was tested, and the Kd was 25 to 250 nM. With `CC(C)C[C@H](NC(=O)[C@H](CC(C)C)NC(=O)[C@H](CCC(N)=O)NC(=O)[C@@H](N)Cc1ccccc1)C(=O)O` [compound 23, FQLL-OH] (H-FQLL-OH) the Kd was 25 to 250 nM. `CC(C)C[C@H](NC(=O)[C@H](CC(C)C)NC(=O)[C@H](CCC(N)=O)NC(=O)[C@@H](N)CCCCN)C(=O)O` [compound 24] (H-KQLL-OH) gave a Kd of 25 to 250 nM. With `CC(C)C[C@H](NC(=O)[C@H](CC(C)C)NC(=O)[C@H](CCC(N)=O)NC(=O)[C@@H]1CCCN1)C(=O)O` [compound 25] (H-PQLL-OH) the Kd was 25 to 250 nM. In the case of `CC[C@H](C)[C@H](NC(=O)[C@H](Cc1ccc(O)cc1)NC(=O)[C@@H]1CCCN1)C(=O)N[C@@H](CC(C)C)C(=O)O` [compound 26] (H-PYIL-OH), the Kd is reported as 25 to 250 nM. `CC(C)C[C@H](NC(=O)[C@H](CC(C)C)NC(=O)[C@H](Cc1ccc(O)cc1)NC(=O)[C@@H](N)CCCNC(=N)N)C(=O)O` [compound 27, RYLL-OH] (H-RYLL-OH) gave a Kd of 25 to 250 nM. `CC(C)C[C@H](NC(=O)[C@H](CC(C)C)NC(=O)[C@H](Cc1ccc(O)cc1)NC(=O)[C@@H](N)Cc1ccccc1)C(=O)O` [compound 28, FYLL-OH] (H-FYLL-OH) was tested, and the Kd was 25 to 250 nM. Compound `CC(C)C[C@H](NC(=O)[C@H](CC(C)C)NC(=O)[C@H](CCC(N)=O)NC(=O)[C@@H](N)Cc1ccc(O)cc1)C(=O)O` [compound 29, YQLL-OH] (H-YQLL-OH) has a Kd of 25 to 250 nM. `CC[C@H](C)[C@H](NC(=O)[C@H](Cc1ccc(O)cc1)NC(=O)[C@@H](N)Cc1ccccc1)C(=O)N[C@@H](CC(C)C)C(=O)O` [compound 31] (H-FYIL-OH) showed a Kd of 250 to 2500 nM. Work on `CC[C@H](C)[C@H](NC(=O)[C@H](Cc1ccc(O)cc1)NC(=O)[C@@H](N)CCCNC(=N)N)C(=O)N[C@@H](CC(C)C)C(=O)O` [compound 32] (H-RYIL-OH) yielded a Kd of 250 to 2500 nM. `CC(C)C[C@H](NC(=O)[C@H](CC(C)C)NC(=O)[C@H](Cc1ccc(O)cc1)NC(=O)[C@@H]1CCCN1)C(=O)O` [compound 33] (H-PYLL-OH) was tested, and the Kd was 250 to 2500 nM. In the case of `CC(C)C[C@H](NC(=O)[C@H](Cc1ccc(O)cc1)NC(=O)[C@H](Cc1ccc(O)cc1)NC(=O)[C@@H](N)CCCNC(=N)N)C(=O)O` [compound 36] (H-RYYL-OH), the Kd is reported as 25 to 250 nM. `CC(C)C[C@H](NC(=O)[C@H](Cc1ccccc1)NC(=O)[C@H](Cc1ccc(O)cc1)NC(=O)[C@@H](N)CCCNC(=N)N)C(=O)O` [compound 37] (H-RYFL-OH) gave a Kd of 250 to 2500 nM. Compound `CC(C)C[C@H](NC(=O)[C@H](Cc1ccccc1)NC(=O)[C@H](CCC(N)=O)NC(=O)[C@@H](N)CCCNC(=N)N)C(=O)O` [compound 38] (H-RQFL-OH) has a Kd of 250 to 2500 nM. Work on `CC(C)C[C@H](NC(=O)[C@H](Cc1ccc(O)cc1)NC(=O)[C@H](CCC(N)=O)NC(=O)[C@@H](N)CCCNC(=N)N)C(=O)O` [compound 39] (H-RQYL-OH) yielded a Kd of 250 to 2500 nM. In the case of `CC(C)C[C@H](NC(=O)[C@H](CC(C)C)NC(=O)[C@H](CCC(N)=O)NC(=O)[C@@H](N)Cc1c[nH]cn1)C(=O)O` [compound 41] (H-HQLL-OH; N-terminus assumed), the Kd is reported as > 2500 nM. Compound `CC[C@H](C)[C@H](N)C(=O)N[C@@H](CCC(N)=O)C(=O)N[C@@H](CC(C)C)C(=O)N[C@@H](CC(C)C)C(=O)O` [compound 42] (H-IQLL-OH; N-terminus assumed) has a Kd of 250 to 2500 nM. `CC(C)C[C@H](NC(=O)[C@H](Cc1ccc(O)cc1)NC(=O)[C@H](Cc1ccc(O)cc1)NC(=O)[C@@H](N)Cc1ccccc1)C(=O)O` [compound 43] (H-FYYL-OH; N-terminus assumed) was tested, and the Kd was > 2500 nM. For `CC(C)C[C@H](NC(=O)[C@H](CCCNC(=N)N)NC(=O)[C@H](CCCNC(=N)N)NC(=O)[C@H](CCCCN)NC(=O)[C@H](CCCCN)NC(=O)[C@H](Cc1ccccc1)NC(=O)[C@H](CC(C)C)NC(=O)[C@@H](N)CCCNC(=N)N)C(=O)N[C@@H](CCCNC(=N)N)C(=O)N[C@@H](CO)C(=O)N1CCC[C@H]1C(=O)N[C@@H](CCCNC(=N)N)C(=O)N[C@H](C(=O)N[C@@H](CC(C)C)C(=O)N[C@@H](Cc1ccccc1)C(N)=O)C(C)C` [compound 47], the Kd was > 2500 nM. With `CC(C)C[C@H](NC(=O)[C@H](CC(C)C)NC(=O)[C@H](CCC(N)=O)NC(=O)[C@H](CCCNC(=N)N)NC(=O)[C@H](CC(C)C)NC(=O)[C@H](C)NC(=O)[C@@H]1CCCN1C(=O)[C@H](CC(=O)O)NC(=O)[C@H](CCCNC(=N)N)NC(=O)[C@H](CC(C)C)NC(=O)[C@@H]1CCCN1C(=O)[C@H](C)NC(=O)[C@H](CC(=O)O)NC(=O)[C@H](Cc1c[nH]c2ccccc12)NC(=O)[C@H](CCCNC(=N)N)NC(=O)[C@@H]1CCCN1C(=O)[C@H](C)NC(=O)[C@H](CCC(=O)O)NC(=O)[C@@H](N)CCCNC(=N)N)C(=O)O` [compound 53] the Kd was < 25 nM. `CC[C@H](C)[C@H](NC(=O)[C@H](Cc1ccc(O)cc1)NC(=O)[C@@H]1CCCN1C(=O)[C@H](CCCNC(=N)N)NC(=O)[C@H](CCCNC(=N)N)NC(=O)[C@@H]1CCCN1C(=O)[C@H](CCCCN)NC(=O)[C@H](CC(N)=O)NC(=O)[C@H](CCC(=O)O)NC(=O)[C@H](Cc1ccc(O)cc1)NC(=O)[C@@H](N)CC(C)C)C(=O)N[C@@H](CC(C)C)C(=O)O` [compound 56] showed a Kd of 25 to 250 nM. With `CC(C)C[C@H](N)C(=O)N[C@@H](Cc1ccc(O)cc1)C(=O)N[C@@H](CCC(=O)O)C(=O)N[C@@H](CC(N)=O)C(N)=O` [compound 64] (H-LYEN-NH2; N-terminus assumed) the Kd was > 2500 nM.

Same assay, conditions: Table 4; small molecule bifunctional compounds; MST
For `Cc1cc(-c2ccc(C(=O)NCCCCCCCCCCCC(=O)NCC(=O)N3CCN(c4ncc(-c5ccc6c(n5)N(Cc5cccnc5C#N)C(C)(C)C6=O)cn4)C[C@H]3C)cc2)cc(NC(=O)c2ccc(C(F)(F)F)cc2C(=O)O)n1` [BF146, 2-[[4-[4-[[12-[[2-[(2R)-4-[5-[1-[(2-cyano-3-pyridyl)methyl]-2,2-dimethyl-3-oxo-pyrrolo[2,3-b]pyridin-6-yl]pyrimidin-2-yl]-2-methyl-piperazin-1-yl]-2-oxo-ethyl]amino]-12-oxo-dodecyl]carbamoyl]phenyl]-6-methyl-2-pyridyl]carbamoyl]-5-(trifluoromethyl)benzoic acid], the “KD score, binding to sortilin (Kd)” value was 0.

Same assay, conditions: Table 4; small molecule bifunctional compounds; MST; read-out: KD score, binding to sortilin (Kd)
In the case of `C[C@@H]1CN(c2ncc(-c3ccc4c(n3)N(Cc3cccnc3C#N)C(C)(C)C4=O)cn2)CCN1C(=O)Cn1cc(COCCOCCOCC(=O)N2CCC(Oc3cccc(Oc4ccc(C(=O)N[C@@H](CCC(C)(C)C)C(=O)O)cn4)c3)CC2)nn1` [BF112, (2S)-2-[[6-[3-[[1-[2-[2-[2-[[1-[2-[(2R)-4-[5-[1-[(2-cyano-3-pyridyl)methyl]-2,2-dimethyl-3-oxo-pyrrolo[2,3-b]pyridin-6-yl]pyrimidin-2-yl]-2-methyl-piperazin-1-yl]-2-oxo-ethyl]triazol-4-yl]methoxy]ethoxy]ethoxy]acetyl]-4-piperidyl]oxy]phenoxy]pyridine-3-carbonyl]amino]-5,5-dimethyl-hexanoic acid], the Kd is reported as < 1 nM. For `C[C@@H]1CN(c2ncc(-c3ccc4c(n3)N(Cc3cccnc3C#N)C(C)(C)C4=O)cn2)CCN1C(=O)Cn1cc(COCCOCCN2CCN(CCOCCOc3cccc(Oc4ccc(C(=O)N[C@@H](CCC(C)(C)C)C(=O)O)cn4)c3)CC2)nn1` [BF113, (2S)-2-[[6-[3-[2-[2-[4-[2-[2-[[1-[2-[(2R)-4-[5-[1-[(2-cyano-3-pyridyl)methyl]-2,2-dimethyl-3-oxo-pyrrolo[2,3-b]pyridin-6-yl]pyrimidin-2-yl]-2-methyl-piperazin-1-yl]-2-oxo-ethyl]triazol-4-yl]methoxy]ethoxy]ethyl]piperazin-1-yl]ethoxy]ethoxy]phenoxy]pyridine-3-carbonyl]amino]-5,5-dimethyl-hexanoic acid], the Kd was < 1 nM. In the case of `C[C@@H]1CN(c2ncc(-c3ccc4c(n3)N(Cc3cccnc3C#N)C(C)(C)C4=O)cn2)CCN1C(=O)Cn1cc(COCCOCCOC2CN(CCOCCOc3cccc(Oc4ccc(C(=O)N[C@@H](CCC(C)(C)C)C(=O)O)cn4)c3)C2)nn1` [BF114, (2S)-2-[[6-[3-[2-[2-[3-[2-[2-[[1-[2-[(2R)-4-[5-[1-[(2-cyano-3-pyridyl)methyl]-2,2-dimethyl-3-oxo-pyrrolo[2,3-b]pyridin-6-yl]pyrimidin-2-yl]-2-methyl-piperazin-1-yl]-2-oxo-ethyl]triazol-4-yl]methoxy]ethoxy]ethoxy]azetidin-1-yl]ethoxy]ethoxy]phenoxy]pyridine-3-carbonyl]amino]-5,5-dimethyl-hexanoic acid], the Kd is reported as < 1 nM. `CC(C)(C)CC[C@H](NC(=O)c1ccc(Oc2cccc(OCC(=O)NCCOCCOCCOCCNc3ncc(-c4ccc5c(n4)N(Cc4cccnc4C#N)C(C)(C)C5=O)cn3)c2)nc1)C(=O)O` [BF137, (2S)-2-[[6-[3-[2-[2-[2-[2-[2-[[5-[1-[(2-cyano-3-pyridyl)methyl]-2,2-dimethyl-3-oxo-pyrrolo[2,3-b]pyridin-6-yl]pyrimidin-2-yl]amino]ethoxy]ethoxy]ethoxy]ethylamino]-2-oxo-ethoxy]phenoxy]pyridine-3-carbonyl]amino]-5,5-dimethyl-hexanoic acid] was tested, and the Kd was < 1 nM. Compound `CC(C)(C)CC[C@H](NC(=O)c1ccc(Oc2cccc(OCC(=O)NCCOCCOCCOCCOc3ncc(-c4ccc5c(n4)N(Cc4cccnc4C#N)C(C)(C)C5=O)cn3)c2)nc1)C(=O)O` [BF139] has a Kd of 1 to 10 nM. `CC(C)(C)CC[C@H](NC(=O)c1ccc(Oc2cccc(OCC(=O)NCCOCCOCCOCCOCCOCCOc3ncc(-c4ccc5c(n4)N(Cc4cccnc4C#N)C(C)(C)C5=O)cn3)c2)nc1)C(=O)O` [BF143, (S)-2-(6-(3-((20-((5-(1-((2-cyanopyridin-3-yl)methyl)-2,2-dimethyl-3-oxo-2,3-dihydro-1H-pyrrolo[2,3-b]pyridin-6-yl)pyrimidin-2-yl)oxy)-2-oxo-6,9, 12, 15, 18-pentaoxa-3-azaicosyl)oxy)phenoxy)nicotinamido)-5,5-dimethylhexanoic acid] showed a Kd of 1 to 10 nM.

Reference: patent publication US20250345446A1 (Draupnir Bio ApS, priority 2022, published 2025)
